Measured values: ChEMBL document CHEMBL2331411, “Pyrrolopyrimidine inhibitors of DNA gyrase B (GyrB) and topoisomerase IV (ParE). Part I: Structure guided discovery and optimization of dual targeting agents with potent, broad-spectrum enzymatic activity” (Bioorg Med Chem Lett, 2013)
In brackets after ≈: the same amount, converted by molar mass.

Key:
Staphylococcus aureus = test: Antibacterial activity against Staphylococcus aureus assessed as growth inhibition; format: functional
[1] = Inhibition of Enterococcus faecalis DNA gyrase subunit B using ATP as substrate assessed as release of inorganic phosphate incubated for 10 mins prior to substrate addition measured after 30 mins by spectrophotometric analysis
[2] = Inhibition of Francisella tularensis DNA gyrase subunit B using ATP as substrate assessed as release of inorganic phosphate incubated for 10 mins prior to substrate addition measured after 30 mins by spectrophotometric analysis
[3] = Inhibition of Acinetobacter baumannii DNA topoisomerase 4 subunit B using ATP as substrate assessed as release of inorganic phosphate incubated for 10 mins prior to substrate addition measured after 30 mins by spectrophotometric analysis
[4] = Inhibition of Enterococcus faecalis DNA topoisomerase 4 subunit B using ATP as substrate assessed as release of inorganic phosphate incubated for 10 mins prior to substrate addition measured after 30 mins by spectrophotometric analysis
[5] = Inhibition of Francisella tularensis DNA topoisomerase 4 subunit B using ATP as substrate assessed as release of inorganic phosphate incubated for 10 mins prior to substrate addition measured after 30 mins by spectrophotometric analysis
[6] = Inhibition of Escherichia coli DNA topoisomerase 4 subunit B using ATP as substrate assessed as release of inorganic phosphate incubated for 10 mins prior to substrate addition measured after 30 mins by spectrophotometric analysis

Row | SMILES | MIC (Staphylococcus aureus) | Ki [1] | Ki [2] | Ki [3] | Ki [4] | Ki [5] | Ki [6]
1 | CCc1cc2c(Cl)nc(Sc3cccnc3)nc2[nH]1 | > 64 µg/mL | > 50000 nM | – | – | – | – | –
2 | CCc1[nH]c2nc(Sc3cccnc3)nc(Cl)c2c1Cl | 4 µg/mL (≈ 12.3 µM) | 400 nM | 500 nM | 2000 nM | 3500 nM | – | –
3 | CCc1[nH]c2nc(Sc3cnc4ncc(=O)[nH]c4c3)nc(N3CC[C@@H](N)C3)c2c1Cl | – | < 1 nM | 1 nM | – | 13 nM | 6 nM | 11 nM
4 | CCc1[nH]c2nc(Sc3cccnc3)nc(Cl)c2c1Br | 2 µg/mL (≈ 5.41 µM) | 300 nM | 400 nM | – | 3500 nM | 1200 nM | –
5 | CCc1[nH]c2nc(Sc3ccc4cc5c(nc4c3)C(=O)OC5)nc(N3CC[C@@H](N)C3)c2c1Cl | – | < 1 nM | – | – | < 1 nM | 2 nM | < 1 nM
6 | CCc1[nH]c2nc(Sc3cncnc3)nc(N3CC[C@@H](N)C3)c2c1Cl | – | 4 nM | 8 nM | – | 157 nM | 36 nM | 127 nM
7 | CCc1[nH]c2nc(Sc3ccc4nc[nH]c(=O)c4c3)nc(N3CC[C@@H](N)C3)c2c1Cl | – | < 1 nM | – | – | 14 nM | 2 nM | 4 nM
8 | CCc1[nH]c2nc(Sc3cccnc3)nc(OC)c2c1C=O | – | 200 nM | 800 nM | – | 1200 nM | 900 nM | –
9 | CCc1[nH]c2nc(Sc3ccc4nc(N)n[n+]([O-])c4c3)nc(N3CC[C@@H](N)C3)c2c1Cl | – | < 1 nM | – | – | 7 nM | – | 2 nM
10 | CCc1[nH]c2nc(Sc3cnc4cccnc4c3)nc(N3CC[C@@H](N)C3)c2c1Cl | – | < 1 nM | – | – | 2 nM | – | < 1 nM
11 | CCc1[nH]c2nc(Sc3ccc4c(c3)C(=O)NC4)nc(N3CC[C@@H](N)C3)c2c1Cl | – | 7 nM | 9 nM | – | 19 nM | 2 nM | 11 nM
12 | CCc1[nH]c2nc(Sc3ccc4c(N5CCC(N)C5)cc(C(=O)O)nc4c3)nc(N3CC[C@@H](N)C3)c2c1Cl (some centres not stated) | – | < 1 nM | – | – | 19 nM | 6 nM | 7 nM
13 | CCc1[nH]c2nc(Sc3ccc4ccc[n+]([O-])c4c3)nc(N3CC[C@@H](N)C3)c2c1Cl | – | < 1 nM | – | – | 15 nM | 3 nM | 7 nM
14 | CCc1[nH]c2nc(Sc3cccnc3)nc(Cl)c2c1C=O | 64 µg/mL (≈ 201 µM) | 800 nM | 1200 nM | – | 3700 nM | 8700 nM | –
15 | CCc1[nH]c2nc(Sc3cnc4nccnc4c3)nc(N3CCC(N)CC3)c2c1Cl | – | < 1 nM | 3 nM | – | 69 nM | 6 nM | 36 nM
16 | CCc1[nH]c2nc(Sc3cnc4cccnc4c3)nc(N3CC4C(N)C4C3)c2c1Cl (configuration not stated) | – | 1 nM | < 1 nM | – | 10 nM | 2 nM | 1 nM
17 | CCc1[nH]c2nc(Sc3ccc4cccnc4c3)nc(N3CC[C@@H](N)C3)c2c1Cl | – | 4 nM | 10 nM | – | 148 nM | 27 nM | 80 nM

Row | SMILES | MIC (Staphylococcus aureus) | Ki [1] | Ki [2] | Ki [3] | Ki [4] | Ki [5] | Ki [6]
18 | CCc1[nH]c2nc(Oc3cncnc3)nc(N3CC4C(N)C4C3)c2c1Cl (configuration not stated) | – | < 1 nM | – | – | 10 nM | 2 nM | 4 nM
19 | CCc1[nH]c2nc(Sc3cccnc3)nc(Cl)c2c1C(F)F | 64 µg/mL (≈ 188 µM) | 1700 nM | 500 nM | – | 1200 nM | 400 nM | –
20 | CCc1[nH]c2nc(Sc3ccc4ccc(C(=O)O)nc4c3)nc(N3CC[C@@H](N)C3)c2c1Cl | – | < 1 nM | – | – | 4 nM | 4 nM | 2 nM
21 | CCc1[nH]c2nc(Sc3cnc4nccnc4c3)nc(N3CC4C(N)C4C3)c2c1Cl (configuration not stated) | – | < 1 nM | – | – | 4 nM | – | < 1 nM
22 | CCc1[nH]c2nc(Sc3ccc4cncnc4c3)nc(N3CC[C@@H](N)C3)c2c1Cl | – | < 1 nM | – | – | 7 nM | 2 nM | 5 nM
23 | CCc1[nH]c2nc(Sc3cccnc3)nc(Cl)c2c1C(C)=O | 64 µg/mL (≈ 192 µM) | 2000 nM | 6600 nM | – | 1000 nM | > 20000 nM | –
24 | CCc1[nH]c2nc(Sc3cnc4nccnc4c3)nc(N3C[C@H]4CCN[C@H]4C3)c2c1Cl | – | 6 nM | < 1 nM | – | 19 nM | 9 nM | 6 nM
25 | CCc1[nH]c2nc(Sc3cnc4[nH][nH]c(=O)c4c3)nc(N3CC[C@@H](N)C3)c2c1Cl | – | 6 nM | 5 nM | – | 24 nM | 4 nM | 6 nM
26 | CCc1[nH]c2nc(Oc3cncnc3)nc(N3CC[C@@H](N)C3)c2c1Cl | – | < 1 nM | 3 nM | – | 84 nM | 15 nM | 38 nM
27 | CCc1[nH]c2nc(Sc3cnc4nccnc4c3)nc(N3C[C@H]4CN[C@H]4C3)c2c1Cl | – | < 1 nM | – | – | 9 nM | 1 nM | 2 nM
28 | CCc1[nH]c2nc(Oc3cnc4cccnc4c3)nc(N3CC4C(N)C4C3)c2c1Cl (configuration not stated) | – | < 1 nM | – | – | 3 nM | – | < 1 nM
29 | CCc1[nH]c2nc(Sc3cnc4nccnc4c3)nc(N3CC(N)C3)c2c1Cl | – | 4 nM | 7 nM | – | 65 nM | 4 nM | 39 nM
30 | CCc1[nH]c2nc(Sc3cnc4nccnc4c3)nc(N3CC[C@@H](N)C3)c2c1Cl | – | 2 nM | < 1 nM | – | 23 nM | 4 nM | 11 nM
31 | CCc1[nH]c2nc(Sc3cncnc3)nc(N3CC4C(N)C4C3)c2c1Cl (configuration not stated) | – | 5 nM | 2 nM | – | 79 nM | 15 nM | 36 nM
32 | CCc1[nH]c2nc(Sc3cnc4nccnc4c3)nc(N3C[C@H]4CCCN[C@H]4C3)c2c1Cl | – | 9 nM | < 1 nM | – | 29 nM | 10 nM | 17 nM
33 | CCc1[nH]c2nc(Sc3cnc4ccc[n+]([O-])c4c3)nc(N3CC[C@@H](N)C3)c2c1Cl | – | < 1 nM | – | – | 5 nM | 1 nM | 5 nM
34 | CCc1[nH]c2nc(Sc3ccc4[nH]cc(C(=O)O)c(=O)c4c3)nc(N3CC[C@@H](N)C3)c2c1Cl | – | < 1 nM | – | – | 6 nM | – | < 1 nM
